The values below are quoted from earlier work in patent US7195778B2, “Drug delivery system for zero order, zero order-biphasic, ascending or descending drug delivery” (Teva Pharmaceutical Industries Ltd., priority 2001, dated 2007).

Molecules are shown by their SMILES. Where a name gives a salt, the structure may show the parent alone. Read-outs that look alike come from different tables or passages of the source.

Regarding `COC(=O)C(c1ccccc1)C1CCCCN1` (stereo not shown) [methylphenidate HCl], the drug excreted by setting is: (adults) 80%; (children) 67%. Further, where the note is “children, immediate release”, the time to peak was 1.9 h. For the setting “children, immediate release”, the “time to peak, range” value is 0.3 to 4.4 h. Also, the primary adverse events entry (chronic dosing) was “nervousness, insomnia and appetite suppression”. The pharmacokinetic half-life (immediate release) was 2 to 3 h. The “AD/HD patients responding positively” value (reports) is listed as 70–90%.
